# Laboratory results: US20220348592A1, “FUSED HETEROCYCLIC DERIVATIVES” (Janssen Sciences Ireland Unlimited Company, priority 2019, published 2022)
# Where two headings read alike, the source gives them in different places.
# Assays:
# HBV = assay: Anti-HBV activity: intracellular HBV DNA by real-time PCR in HepG2.117 cell line; assay type: cell-based, Hepatitis B virus; conditions: Hepatitis B virus, read-out: HBV-AVE-HepG2.117 EC50 (μM, mean value)
# Procedure: The anti HBV activity was measured using the HepG2.117 cell line, a stable, inducibly HBV producing cell line, which replicates HBV in the absence of doxicycline (Tet-off system). The HepG2 cell line is available from ATCC® under number HB-8065. Transfection of the HepG2 cell line can be as described in Sun and Nassal 2006 Journal of Hepatology 45 (2006) 636-645 “Stable HepG2- and Huh7-based human hepatoma cell lines for efficient regulated expression of infectious hepatitis B virus”.
# For the antiviral assay, HBV replication was induced, followed by a treatment with serially diluted compound in 96-well plates. After 3 days of treatment, the antiviral activity was determined by quantification of intracellular HBV DNA using real-time PCR and an HBV specific primer set and probe.
# [1] = Cytotoxicity in HepG2.117 cells, ATPlite Luminescence Assay; assay type: cell-based, human; conditions: human, incubated for 3 days, mean value, read-out: TOX-HepG2.117 CC50 (μM, mean value)
# Procedure: Cytotoxicity of the compounds was tested using HepG2 or HepG2.117 cells, incubated for 3 days in the presence of compounds. The viability of the cells was assessed using the PERKIN ELMER ATPlite Luminescence Assay System.”
# [2] = 72 h, HepG2.117 cells, 3 days of treatment, intracellular HBV DNA by real-time PCR, mean value
Structure (SMILES),EC50 (HBV; [2]),CC50 at 3 days [1],"EC50 (HBV; HepG2.117, 72 h)"
COc1cc(Cl)ccc1C(=O)N1CCc2nn3c(c2C1)C(=O)N(Cc1ccccn1)CC3 [Example C76],0.983 µM,> 25 µM,–
C[C@@H]1Cc2nn3c(c2CN1C(=O)c1ccc(Cl)c(Cl)c1)C(=O)N(C(C)(C)c1ccc(OC(F)F)cc1)CC3 [Example C90],0.667 µM,21.9 µM,–
C[C@@H]1Cc2nn3c(c2CN1C(=O)c1ccc(Cl)c(Cl)c1)C(=O)N(Cc1cnn(C)c1)CC3 [Example C147],0.054 µM,> 50 µM,–
"C[C@@H]1Cc2nn3c(c2CN1C(=O)c1ccc(Cl)c(Cl)c1)C(=O)N([C@@H](C)c1nc[nH]n1)CC3 [Compound 30, (3R)-2-(3,4-Dichlorobenzoyl)-3-methyl-9-[(1S)-1-(1H-1,2,4-triazol-3-yl)ethyl]-1,2,3,4,8,9-hexa-hydropyrido[4′,3′:3,4]pyrazolo[1,5-a]pyrazin-10(7H)-one]",–,> 50 µM,1.5 µM
CC(c1nnnn1C1CC1)N1CCn2nc3c(c2C1=O)CN(C(=O)c1ccc(Cl)c(Cl)c1)[C@H](C)C3 (stereo partly drawn) [Example C184],> 2.5 µM,> 50 µM,–
C[C@@H]1Cc2nn3c(c2CN1C(=O)c1ccc(Cl)c(Cl)c1)C(=O)N(Cc1ccc(C(F)(F)F)nc1)CC3 [Example C171],0.082 µM,15.3 µM,–
O=C(c1ccc(Cl)c(F)c1)N1CCc2nn3c(c2C1)C(=O)N(Cc1ccccn1)CC3 [Example C78],0.707 µM,> 50 µM,–
Cc1nc(C(C)N2CCn3nc4c(c3C2=O)CN(C(=O)c2ccc(Cl)c(Cl)c2)[C@H](C)C4)no1 (stereo partly drawn) [Example C225],0.263 µM,> 50 µM,–
COc1ncc(CN2CCn3nc4c(c3C2=O)CN(C(=O)c2ccc(Cl)c(Cl)c2)[C@H](C)C4)cn1 [Example C198],0.053 µM,> 50 µM,–
"C[C@@H]1Cc2nn3c(c2CN1C(=O)c1ccc(Cl)c(Cl)c1)C(=O)N([C@@H](C)c1ncn(S(=O)(=O)N(C)C)n1)CC3 [Compound 29, 3-{(1S)-1-[(3R)-2-(3,4-Dichlorobenzoyl)-3-methyl-10-oxo-1,3,4,7,8,10-hexahydropyrido-[4′,3′:3,4]pyrazolo[1,5-a]pyrazin-9(2H)-yl]ethyl}-N,N-dimethyl-1H-1,2,4-triazole-1-sulfonamide]",0.741 µM,> 50 µM,–
Cc1noc(C(C)N2CCn3nc4c(c3C2=O)CN(C(=O)c2ccc(Cl)c(Cl)c2)[C@H](C)C4)n1 (stereo partly drawn) [Example C223],0.219 µM,> 50 µM,–
"CC(c1ccncc1)N1CCn2nc3c(c2C1=O)CN(C(=O)c1ccc(Cl)c(Cl)c1)CC3 (stereo not drawn) [Compound 5, 2-(3,4-Dichlorobenzoyl)-9-[1-(pyridin-4-yl)ethyl]-1,2,3,4,8,9-hexahydropyrido[4′,3′:3,4-]pyrazolo[1,5-a]pyrazin-10(7H)-one]",0.213 µM,> 50 µM,–
C[C@@H]1Cc2nn3c(c2CN1C(=O)c1ccc(Cl)c(Cl)c1)C(=O)N(Cc1ccc(C#N)cc1C(F)(F)F)CC3 [Example C170],0.432 µM,> 50 µM,–
C[C@@H]1Cc2nn3c(c2CN1C(=O)c1ccc(Cl)c(Cl)c1)C(=O)N(Cc1ccccc1OC(F)F)CC3 [Example C67],0.07 µM,22.5 µM,–
"C[C@@H]1Cc2nn3c(c2CN1C(=O)c1ccc(Cl)c(Cl)c1)C(=O)N([C@@H](C)c1ccc(F)cc1)CC3 [Compound 26, (3R)-2-(3,4-Dichlorobenzoyl)-9-[(1S)-1-(4-fluorophenyl)ethyl]-3-methyl-1,2,3,4,8,9-hexahydro-pyrido[4′,3′:3,4]pyrazolo[1,5-a]pyrazin-10(7H)-one]",0.028 µM,26.2 µM,–
C[C@@H]1Cc2nn3c(c2CN1C(=O)c1cc2c(F)c(F)ccc2[nH]1)C(=O)N(Cc1ccccn1)CC3 [Example C101],0.036 µM,8.95 µM,–
CCCn1c(C)nnc1CN1CCn2nc3c(c2C1=O)CN(C(=O)c1ccc(Cl)c(Cl)c1)[C@H](C)C3 [Example C134],> 2.5 µM,> 50 µM,–
C[C@@H]1Cc2nn3c(c2CN1C(=O)c1ccc(OC(F)F)c(Cl)c1)C(=O)N(Cc1ccccn1)CC3 [Example C113],0.257 µM,> 50 µM,–
Cc1nc(C)c(CN2CCn3nc4c(c3C2=O)CN(C(=O)c2ccc(Cl)c(Cl)c2)[C@H](C)C4)o1 [Example C149],0.059 µM,> 50 µM,–
Cc1cn(C)c(CN2CCn3nc4c(c3C2=O)CN(C(=O)c2ccc(Cl)c(Cl)c2)[C@H](C)C4)n1 [Example C173],0.41 µM,> 50 µM,–
"COc1ccc(CN2CCCn3nc4c(c3C2=O)CN(C(=O)c2ccc(Cl)c(Cl)c2)[C@H](C)C4)cc1 [Compound 40, (3R)-2-(3,4-Dichlorobenzoyl)-10-[(4-methoxyphenyl)methyl]-3-methyl-1,2,3,4,7,8,9,10-octahydro-11H-pyrido[4′,3′:3,4]pyrazolo[1,5-a][1,4]diazepin-11-one]",0.022 µM,20.9 µM,–

Structure (SMILES),EC50 (HBV; [2]),CC50 at 3 days [1],"EC50 (HBV; HepG2.117, 72 h)"
Cc1cc(F)ccc1CN1CCn2nc3c(c2C1=O)CN(C(=O)c1ccc(Cl)c(Cl)c1)[C@H](C)C3 [Example C154],0.071 µM,9.53 µM,–
Cc1cnc(CN2CCn3nc4c(c3C2=O)CN(C(=O)c2ccc(Cl)c(Cl)c2)[C@H](C)C4)o1 [Example C138],0.061 µM,> 50 µM,–
C[C@@H]1Cc2nn3c(c2CN1C(=O)c1ccc(Cl)c(Cl)c1)C(=O)N(Cc1ccc(C#N)cc1OC(F)F)CC3 [Example C203],0.09 µM,> 50 µM,–
CC(c1ccc(Br)cc1)N1CCn2nc3c(c2C1=O)CN(C(=O)c1ccc(Cl)c(Cl)c1)[C@H](C)C3 (stereo partly drawn) [Example C98],0.073 µM,9.83 µM,–
CC(c1ccc(OC(F)(F)F)cc1)N1CCn2nc3c(c2C1=O)CN(C(=O)c1ccc(Cl)c(Cl)c1)[C@H](C)C3 (stereo partly drawn) [Example C127],0.133 µM,15.7 µM,–
C[C@@H]1Cc2nn3c(c2CN1C(=O)c1ccc(Cl)c(Cl)c1)C(=O)N(Cc1cc(C(F)F)on1)CC3 [Example C182],0.075 µM,> 50 µM,–
C[C@@H]1Cc2nn3c(c2CN1C(=O)c1ccc(Cl)c(Cl)c1)C(=O)N(Cc1ccc(Cl)nc1)CC3 [Example C91],0.083 µM,36.7 µM,–
C[C@@H]1Cc2nn3c(c2CN1C(=O)c1ccc(Cl)c(C(F)(F)F)c1)C(=O)N(Cc1ccccn1)CC3 [Example C112],0.025 µM,> 50 µM,–
CC(c1cc[nH]n1)N1CCn2nc3c(c2C1=O)CN(C(=O)c1ccc(Cl)c(Cl)c1)[C@H](C)C3 (stereo partly drawn) [Example C87],0.066 µM,> 50 µM,–
Cc1nc(CN2CCn3nc4c(c3C2=O)CN(C(=O)c2ccc(Cl)c(Cl)c2)[C@H](C)C4)no1 [Example C151],0.42 µM,> 50 µM,–
COc1ccc(CN2CCn3nc4c(c3C2=O)CN(C(=O)c2ccc(Cl)c(C(F)F)c2)CC4)cc1 [Example C57],0.04 µM,18.9 µM,–
C[C@@H]1Cc2nn3c(c2CN1C(=O)c1ccn2cc(C(F)(F)F)nc2c1)C(=O)N(Cc1ccccn1)CC3 [Example C104],0.632 µM,> 50 µM,–
C[C@@H]1Cc2nn3c(c2CN1C(=O)c1cc2c(C#N)c(F)ccc2[nH]1)C(=O)N(Cc1ccccn1)CC3 [Example C100],0.085 µM,15.5 µM,–
"C[C@@H]1Cc2nn3c(c2CN1C(=O)c1ccc(Cl)c(Cl)c1)C(=O)N(Cc1ccc(F)cc1)CC3 [Compound 12, (3R)-2-(3,4-Dichlorobenzoyl)-9-[(4-fluorophenyl)methyl]-3-methyl-1,2,3,4,8,9-hexahydro-pyrido[4′,3′:3,4]pyrazolo[1,5-a]pyrazin-10(7H)-one]",0.066 µM,25.3 µM,–
Cc1cc(F)ncc1CN1CCn2nc3c(c2C1=O)CN(C(=O)c1ccc(Cl)c(Cl)c1)[C@H](C)C3 [Example C177],0.136 µM,> 50 µM,–
Cc1cnc(C(C)N2CCn3nc4c(c3C2=O)CN(C(=O)c2ccc(Cl)c(Cl)c2)[C@H](C)C4)cn1 (stereo partly drawn) [Example C219],0.068 µM,> 50 µM,–
"O=C1NCCn2nc3c(c21)CN(C(=O)c1ccc(Cl)c(Cl)c1)CC3 [Compound 1, 2-(3,4-Dichlorobenzoyl)-1,2,3,4,8,9-hexahydropyrido[4′,3′:3,4]pyrazolo[1,5-a]pyrazin-10(7H)-one]",9.63 µM,> 50 µM,–
C[C@@H]1Cc2nn3c(c2CN1C(=O)c1ccc(Cl)c(Cl)c1)C(=O)N(Cc1cc(F)ccc1C(F)(F)F)CC3 [Example C181],0.152 µM,> 50 µM,–
C[C@@H]1Cc2nn3c(c2CN1C(=O)c1ccc(Cl)c(Cl)c1)C(=O)N(Cc1ccc(C#N)cc1)CC3 [Example C82],0.019 µM,32.5 µM,–
C[C@@H]1Cc2nn3c(c2CN1C(=O)c1ccc(Cl)c(Cl)c1)C(=O)N(Cc1nnn(C)c1C(F)(F)F)CC3 [Example C165],0.676 µM,> 50 µM,–
"C[C@@H]1Cc2nn3c(c2CN1C(=O)c1ccc(Cl)c(Cl)c1)C(=O)N(Cc1cscn1)CC3 [Compound 22, (3R)-2-(3,4-Dichlorobenzoyl)-3-methyl-9-[(1,3-thiazol-4-yl)methyl]-1,2,3,4,8,9-hexahydro-pyrido[4′,3′:3,4]pyrazolo[1,5-a]pyrazin-10(7H)-one]",0.129 µM,> 50 µM,–
